Test results taken from US20150203474A1, “SOLID FORMS COMPRISING INHIBITORS OF HCV NS5A, COMPOSITIONS THEREOF, AND USES THEREWITH” (PRESIDIO PHARMACEUTICALS ,INC., priority 2012, published 2015).
≈ marks a conversion by molar mass, not a printed value.

Experiments:
Assay type in all cases: physicochemical
[1] = Stressing of Form A at ~40° C./~75% RH
Procedure: Form A samples were stressed at ˜40° C./˜75% relative humidity (RH) for 25-27 days. The samples were added to glass vials and then placed uncapped in jars containing saturated salt solutions. The jars were sealed and placed in an oven. […] XRPD patterns for this sample were collected with a PANalytical X'Pert PRO MPD diffractometer using an incident beam of Cu Kα radiation produced using a long, fine-focus source and a nickel filter. The diffractometer was configured using the symmetric Bragg-Brentano. Prior to the analysis, a silicon specimen (NIST SRM 640d) was analyzed to verify the Si 111 peak position. A specimen of the sample was packing into a nickel-coated copper well. Antiscatter slits (SS) were used to minimize the background generated by air. Soller slits for the incident and diffracted beams were used to minimize broadening from axial divergence. Diffraction patterns were collected using a scanning position-sensitive detector (X'Celerator) located 240 mm from the sample and Data Collector software v. 2.2b. […] TG′analysis was performed using a TA Instruments Q5000 IR and 2950 thermogravimetric analyzers. Temperature calibration was performed using nickel and Alumel™. Each sample was placed in an aluminum pan. Samples ran on TA Instruments 2950 were left uncapped and samples ran on Q5000 was hermetically sealed, the lid pierced, then inserted into the TG furnace. The furnace was heated under nitrogen. The sample was heated from 0° C. to 350° C., at 10° C./min.

[2] = Solubility of Form A (aliquot addition / slurry, visual)
Procedure: Aliquots of various solvents were added to measured amounts of Form A with agitation (typically sonication) at ambient or elevated temperatures until completedissolution was achieved, as judged by visual observation. […] Samples were left to slurry at ambient and elevated temperatures for several days; however, no further dissolution was observed.

[3] = Moisture sorption profile (DVS) of Compound II Form I and amorphous Compound II; conditions: DVS at 25° C.
Procedure: The moisture sorption profile was generated of the sample as well as of a sample of amorphous Compound II at 25° C. using a DVS Moisture Balance Flow System (Model Advantage) with the following conditions: sample size approximately 10 mg, drying 25° C. for 60 minutes, adsorption range 0% to 95% RH, desorption range 95% to 0% RH, and step interval 5%. The equilibrium criterion was <0.01% weight change in 5 minutes for a maximum of 120 minutes.

COC(=O)N[C@H](C(=O)N1CCC[C@H]1c1ncc(-c2ccc3cc(-c4ccc5nc([C@@H]6CCCN6C(=O)[C@@H](NC(=O)OC)C(C)C)[nH]c5c4)ccc3c2)[nH]1)C(C)C [Form A of Compound I]
Hygroscopicity (in words) ([1]; stressed ~40° C./~75% RH 27 days vs unstressed material): hygroscopic at high RH
Thermogravimetric weight loss after stressing ([1]; ~40° C./~75% RH, after 27 days, from 25-225° C., equivalent to 5 moles of water): ~10%
Solid form by XRPD after stressing ([1]; ~40° C./~75% relative humidity, uncapped, after 25 days): remained Form A
Solubility estimate (in words) ([2]; IPA and IPA/MTBE (2/1 (v/v)) mixtures at ambient and elevated temperatures, aliquot addition): poorly soluble
solubility ([2]; IPA/water (95/5 v/v), organic solvent or mixture, thermodynamic from solid, IPA:H2O (95:5), RT, aliquot addition): 33000 µg/mL (≈ 43.3 mM)
solubility ([2]; organic solvent or mixture, thermodynamic from solid, IPA, RT, aliquot addition): < 3000 µg/mL
solubility at 4 days ([2]; organic solvent or mixture, thermodynamic from solid, IPA, RT, slurry, 4 days): < 3000 µg/mL
solubility ([2]; organic solvent or mixture, thermodynamic from solid, IPA, ~60° C., aliquot addition): 2000 µg/mL (≈ 2.62 mM)
solubility at 6 days ([2]; organic solvent or mixture, thermodynamic from solid, IPA, ~60° C., slurry, 6 days): < 6000 µg/mL
solubility ([2]; organic solvent or mixture, thermodynamic from solid, IPA:tBME (2:1), RT, aliquot addition): < 2000 µg/mL
solubility at 3 days ([2]; organic solvent or mixture, thermodynamic from solid, IPA:tBME (2:1), RT, slurry): < 2000 µg/mL
solubility ([2]; organic solvent or mixture, thermodynamic from solid, IPA:tBME (2:1), ~60° C., aliquot addition): < 3000 µg/mL
solubility at 3 days ([2]; organic solvent or mixture, thermodynamic from solid, IPA:tBME (2:1), ~60° C., slurry): < 3000 µg/mL

CC[C@H](C)[C@H](NC(=O)OC)C(=O)N1CCC[C@H]1c1nc2ccc(-c3ccc4cc(-c5cnc([C@@H]6CCCN6C(=O)[C@@H](NC(=O)OC)[C@@H](C)OC)[nH]5)ccc4c3)cc2[nH]1 [Form I of Compound II]
Hygroscopicity (in words) ([3]; 0-75% RH): medium hygroscopic
Water absorption at high RH (in words) ([3]; ~85% RH and above): absorbed water very quickly
weight percentage change (water uptake) from 0-75% RH ([3]; listed as Compound II Form I): 4.34%
